Experimental data as given in PMC5421785, “Citrullination only infrequently impacts peptide binding to HLA class II MHC” (PLoS ONE, 2017).
Like-named read-outs stand apart in the source and are kept apart here. Square brackets hold non-standard residues; d marks the D form. Ends that are not written are not given here. Peptide text beside a SMILES is read from it. Cit = NC(=O)NCCC[C@H](N)C(=O)O

Assays:
HLA-DRB1*01:01 = target: T1, HLA-DRB1*01:01 (Homo sapiens, UniProt P01903+P01911, A100R/D57E/F55L/F60I/F76Y/I96L/L162R/M171V/P40L/Q125E/R42F/V115G/Y59C); test: HLA class II peptide binding, inhibition of radiolabeled peptide binding to purified MHC
T1 construct: EBV transformed homozygous cell lines were used as sources of MHC molecules; endogenous in cells; host or cells: EBV transformed homozygous cell lines

HLA-DRB1*04:01 = target: T2, HLA-DRB1*04:01 (Homo sapiens, UniProt P01903+P01911, A100K/A169T/F76Y/I96L/K127E/L162R/M171V/N62H/P40V/Q125Y/R42H/S133A/S149N/S66Y/V115G/V209L/W38E); test: as above
T2 construct: EBV transformed homozygous cell lines were used as sources of MHC molecules; endogenous in cells; host or cells: EBV transformed homozygous cell lines

[1] = citrullinated 15-mer peptide (X = citrulline), purified HLA-DRB1*01:01, read-out: DRB1*01:01 binding capacity, Cit peptide (IC50 nM)
[2] = citrullinated 15-mer peptide (X = citrulline), purified HLA-DRB1*04:01, read-out: DRB1*04:01 binding capacity, Cit peptide (IC50 nM)
[3] = wild-type (unmodified Arg) 15-mer peptide, purified HLA-DRB1*01:01, read-out: DRB1*01:01 binding capacity, WT peptide (IC50 nM)
[4] = wild-type (unmodified Arg) 15-mer peptide, purified HLA-DRB1*04:01, read-out: DRB1*04:01 binding capacity, WT peptide (IC50 nM)
[5] = citrullinated 15-mer (X), purified MHC, inhibition of radiolabeled peptide binding, dash = IC50 >40,000 nM, read-out: DRB1*01:01 binding capacity, Cit peptide (IC50 nM)
[6] = citrullinated 15-mer (X), purified MHC, inhibition of radiolabeled peptide binding, dash = IC50 >40,000 nM, read-out: DRB1*04:01 binding capacity, Cit peptide (IC50 nM)
[7] = read-out: DRB1*01:01 binding capacity, WT peptide (IC50 nM)
[8] = read-out: DRB1*04:01 binding capacity, WT peptide (IC50 nM)

| Compound | IC50 (HLA-DRB1*01:01; [1]) | IC50 (HLA-DRB1*04:01; [2]) | IC50 (HLA-DRB1*01:01; [5]) | IC50 (HLA-DRB1*04:01; [6]) | other results |
| --- | --- | --- | --- | --- | --- |
| CC[C@H](C)[C@H](NC(=O)[C@H](CCC(=O)O)NC(=O)[C@H](CC(=O)O)NC(=O)[C@H](CCC(N)=O)NC(=O)[C@H](CC(C)C)NC(=O)[C@H](CCCNC(N)=O)NC(=O)CNC(=O)[C@@H](NC(=O)[C@@H](NC(=O)[C@H](CC(=O)O)NC(=O)[C@H](CCC(N)=O)NC(=O)[C@H](Cc1ccc(O)cc1)NC(=O)[C@H](CC(N)=O)NC(=O)[C@H](C)N)[C@@H](C)O)[C@@H](C)CC)C(=O)N[C@@H](CCC(N)=O)C(=O)O [ANYQDTIGXLQDEIQ] (H-ANYQDTIG[Cit]LQDEIQ-OH) | 1050 nM | 6720 nM | – | – | – |
| PNFSSLNLRETNLDS [Vimentin 416 WT] | – | – | – | – | IC50 (HLA-DRB1*01:01; [3]): 538 nM; IC50 (HLA-DRB1*04:01; [4]): 6480 nM |
| CC(C)C[C@H](NC(=O)[C@H](CC(C)C)NC(=O)[C@H](CCCNC(=N)N)NC(=O)[C@@H](NC(=O)CNC(=O)[C@@H]1CCCN1C(=O)[C@@H](NC(=O)[C@H](CO)NC(=O)[C@H](CO)NC(=O)[C@@H](N)CCCNC(N)=O)C(C)C)C(C)C)C(=O)N[C@@H](CCC(N)=O)C(=O)N[C@@H](CC(=O)O)C(=O)N[C@@H](CO)C(=O)N[C@H](C(=O)N[C@@H](CC(=O)O)C(=O)O)C(C)C [XSSVPGVRLLQDSVD] (H-[Cit]SSVPGVRLLQDSVD-OH) | – | – | 533 nM | 9620 nM | – |
| GLPGAPGLRGLPGKD [Collagen 621 WT] | – | – | – | – | IC50 (HLA-DRB1*01:01; [3]): 810 nM; IC50 (HLA-DRB1*04:01; [4]): > 40000 nM |
| DVRQQYESVAAKNLQ [Vimentin 271 WT] | – | – | – | – | IC50 (HLA-DRB1*01:01; [7]): 10 nM; IC50 (HLA-DRB1*04:01; [8]): 6370 nM |
| CC[C@H](C)[C@H](NC(=O)[C@@H](N)CC(=O)O)C(=O)N[C@@H](CCSC)C(=O)N[C@@H](CCCNC(=N)N)C(=O)N[C@@H](CC(C)C)C(=O)N[C@@H](CCCNC(N)=O)C(=O)N[C@@H](CCC(=O)O)C(=O)N[C@@H](CCCCN)C(=O)N[C@@H](CC(C)C)C(=O)N[C@@H](CCC(N)=O)C(=O)N[C@@H](CCC(=O)O)C(=O)N[C@@H](CCC(=O)O)C(=O)N[C@@H](CCSC)C(=O)N[C@@H](CC(C)C)C(=O)N[C@@H](CCC(N)=O)C(=O)O [DIMRLXEKLQEEMLQ] (H-DIMRL[Cit]EKLQEEMLQ-OH) | – | – | 729 nM | > 40000 nM | – |
| CC(C)C[C@H](NC(=O)CNC(=O)[C@H](CCCNC(N)=O)NC(=O)[C@H](C)NC(=O)CNC(=O)[C@@H]1CCCN1C(=O)[C@@H](N)CC(C)C)C(=O)N[C@H](C(=O)NCC(=O)N[C@@H](CCCNC(=N)N)C(=O)N1CCC[C@H]1C(=O)NCC(=O)N[C@@H](CC(=O)O)C(=O)N[C@@H](C)C(=O)NCC(=O)O)[C@@H](C)O [LPGAXGLTGRPGDAG] (H-LPGA[Cit]GLTGRPGDAG-OH) | 2930 nM | > 40000 nM | – | – | – |
| CC(C)C[C@H](NC(=O)[C@@H](NC(=O)[C@H](CC(N)=O)NC(=O)[C@H](CCC(=O)O)NC(=O)[C@H](C)NC(=O)[C@H](CCC(=O)O)NC(=O)[C@H](CCC(=O)O)NC(=O)[C@@H](N)CCCNC(N)=O)[C@@H](C)O)C(=O)N[C@@H](CCC(N)=O)C(=O)N[C@@H](CO)C(=O)N[C@@H](Cc1ccccc1)C(=O)N[C@@H](CCCNC(=N)N)C(=O)N[C@@H](CCC(N)=O)C(=O)N[C@@H](CC(=O)O)C(=O)N[C@H](C(=O)O)C(C)C [XEEAENTLQSFRQDV] (H-[Cit]EEAENTLQSFRQDV-OH) | – | – | 25300 nM | 6330 nM | – |
| VEVERDNLAEDIMRL [Vimentin 171 WT] | – | – | – | – | IC50 (HLA-DRB1*01:01; [7]): 12500 nM; IC50 (HLA-DRB1*04:01; [8]): 16400 nM |
| CC(C)C[C@H](NC(=O)[C@H](CCC(=O)O)NC(=O)[C@H](CCC(N)=O)NC(=O)[C@H](CC(C)C)NC(=O)[C@H](CCC(=O)O)NC(=O)[C@@H](NC(=O)[C@H](CCCCN)NC(=O)[C@H](CCC(=O)O)NC(=O)[C@H](CC(N)=O)NC(=O)[C@@H](N)[C@@H](C)O)C(C)C)C(=O)N[C@@H](CC(N)=O)C(=O)N[C@@H](CC(=O)O)C(=O)N[C@@H](CCCNC(N)=O)C(=O)N[C@@H](Cc1ccccc1)C(=O)N[C@@H](C)C(=O)O [TNEKVELQELNDXFA] (H-TNEKVELQELND[Cit]FA-OH) | – | – | 5570 nM | > 40000 nM | – |
| CC[C@H](C)[C@H](NC(=O)CNC(=O)[C@H](CCCNC(N)=O)NC(=O)[C@H](CCC(N)=O)NC(=O)CNC(=O)[C@H](C)NC(=O)[C@@H](N)CC(C)C)C(=O)N[C@H](C(=O)NCC(=O)N[C@@H](CC(C)C)C(=O)N1CCC[C@H]1C(=O)NCC(=O)N[C@@H](CCC(N)=O)C(=O)N[C@@H](CCCNC(=N)N)C(=O)NCC(=O)O)C(C)C [LAGQXGIVGLPGQRG] (H-LAGQ[Cit]GIVGLPGQRG-OH) | 13 nM | 10500 nM | – | – | – |
| CC[C@H](C)[C@H](NC(=O)[C@H](CC(C)C)NC(=O)[C@@H](N)CC(C)C)C(=O)N[C@@H](CCC(N)=O)C(=O)NCC(=O)N[C@@H](CO)C(=O)N[C@@H](CC(N)=O)C(=O)N[C@@H](CC(=O)O)C(=O)N[C@H](C(=O)N[C@@H](CCC(=O)O)C(=O)N[C@H](C(=O)N[C@@H](CCCNC(N)=O)C(=O)N[C@@H](C)C(=O)N[C@@H](CCC(=O)O)C(=O)NCC(=O)O)[C@@H](C)CC)C(C)C [LLIQGSNDVEIXAEG] (H-LLIQGSNDVEI[Cit]AEG-OH) | – | – | – | – | IC50 (HLA-DRB1*01:01; citrullinated peptide as listed (X at Cit position), read-out: DRB1*01:01 binding capacity Cit peptide (IC50 nM)): 998 nM; IC50 (HLA-DRB1*04:01; citrullinated peptide as listed (X at Cit position), read-out: DRB1*04:01 binding capacity Cit peptide (IC50 nM)): 8740 nM |
| N=C(N)NCCC[C@H](NC(=O)[C@H](CCC(=O)O)NC(=O)CNC(=O)[C@H](CCCNC(=N)N)NC(=O)[C@@H]1CCCN1C(=O)CN)C(=O)NCC(=O)N[C@@H](Cc1ccccc1)C(=O)N1CCC[C@H]1C(=O)NCC(=O)N[C@@H](CCC(=O)O)C(=O)N[C@@H](CCCNC(N)=O)C(=O)NCC(=O)N[C@@H](CO)C(=O)N1CCC[C@H]1C(=O)O [GPRGERGFPGEXGSP] (H-GPRGERGFPGE[Cit]GSP-OH) | 31100 nM | > 40000 nM | – | – | – |
| SSRSYVTTSTRTYSL [Vimentin 26 WT] | – | – | – | – | IC50 (HLA-DRB1*01:01; [7]): 70 nM; IC50 (HLA-DRB1*04:01; [8]): 245 nM |
| CC(C)[C@H](NC(=O)CNC(=O)[C@H](C)NC(=O)[C@H](C)N)C(=O)N[C@@H](CCCCN)C(=O)NCC(=O)N[C@@H](CC(=O)O)C(=O)N[C@@H](CCCNC(N)=O)C(=O)NCC(=O)N[C@@H](CCC(=O)O)C(=O)N[C@H](C(=O)NCC(=O)N[C@@H](C)C(=O)N[C@H](C(=O)NCC(=O)O)C(C)C)[C@@H](C)O [AAGVKGDXGETGAVG] (H-AAGVKGD[Cit]GETGAVG-OH) | 2010 nM | > 40000 nM | – | – | – |
| CC(C)C[C@H](NC(=O)CNC(=O)[C@H](CCCNC(=N)N)NC(=O)[C@H](CCC(=O)O)NC(=O)CNC(=O)[C@@H]1CCCN1C(=O)[C@H](CCC(=O)O)NC(=O)CNC(=O)[C@H](C)N)C(=O)N[C@@H](CCCCN)C(=O)NCC(=O)N[C@@H](Cc1c[nH]cn1)C(=O)N[C@@H](CCCNC(N)=O)C(=O)NCC(=O)N[C@@H](Cc1ccccc1)C(=O)O [AGEPGERGLKGHXGF] (H-AGEPGERGLKGH[Cit]GF-OH) | 594 nM | > 40000 nM | – | – | – |
| GADGPPGRDGAAGVK [Collagen 1041 WT] | – | – | – | – | IC50 (HLA-DRB1*01:01; [3]): > 40000 nM; IC50 (HLA-DRB1*04:01; [4]): > 40000 nM |
| CC[C@H](C)[C@H](NC(=O)[C@H](Cc1ccc(O)cc1)NC(=O)[C@H](CC(N)=O)NC(=O)[C@H](C)NC(=O)[C@H](Cc1ccccc1)NC(=O)[C@H](CCCNC(=N)N)NC(=O)[C@H](CC(=O)O)NC(=O)[C@@H](N)CC(N)=O)C(=O)N[C@@H](CC(=O)O)C(=O)N[C@@H](CCCCN)C(=O)N[C@H](C(=O)N[C@@H](CCCNC(N)=O)C(=O)N[C@@H](Cc1ccccc1)C(=O)N[C@@H](CC(C)C)C(=O)N[C@@H](CCC(=O)O)C(=O)O)C(C)C [NDRFANYIDKVXFLE] (H-NDRFANYIDKV[Cit]FLE-OH) | – | – | 229 nM | 5660 nM | – |
| ARLDLERKVESLQEE [Vimentin 216 WT] | – | – | – | – | IC50 (HLA-DRB1*01:01; [7]): 6310 nM; IC50 (HLA-DRB1*04:01; [8]): 17200 nM |
| CC[C@H](C)[C@H](NC(=O)[C@H](CC(=O)O)NC(=O)[C@H](CCC(=O)O)NC(=O)[C@H](C)NC(=O)[C@H](CC(C)C)NC(=O)[C@H](CC(N)=O)NC(=O)[C@H](CC(=O)O)NC(=O)[C@H](CCCNC(=N)N)NC(=O)[C@H](CCC(=O)O)NC(=O)[C@@H](NC(=O)[C@H](CCC(=O)O)NC(=O)[C@@H](N)C(C)C)C(C)C)C(=O)N[C@@H](CCSC)C(=O)N[C@@H](CCCNC(N)=O)C(=O)N[C@@H](CC(C)C)C(=O)O [VEVERDNLAEDIMXL] (H-VEVERDNLAEDIM[Cit]L-OH) | – | – | 19600 nM | 17100 nM | – |
